# According to PubChem BioAssay AID602128 (The Scripps Research Institute Molecular Screening Center, 2011):
# Active and inactive are the calls of the source. The rule behind the calls is not given here.
# Target: Mucolipin-3 (Homo sapiens) (UniProt Q8TDD5)
# Assay: human mucolipin-3 activators, concentration-response – cell-based, HEK293, calcium fluorescence, analogs, round 2, SAR follow-up (AID 602128)
# Conditions: HEK293 TRPML3 cells
# Sequence of Mucolipin-3 (Homo sapiens) (Q8TDD5 whole entry, looked up): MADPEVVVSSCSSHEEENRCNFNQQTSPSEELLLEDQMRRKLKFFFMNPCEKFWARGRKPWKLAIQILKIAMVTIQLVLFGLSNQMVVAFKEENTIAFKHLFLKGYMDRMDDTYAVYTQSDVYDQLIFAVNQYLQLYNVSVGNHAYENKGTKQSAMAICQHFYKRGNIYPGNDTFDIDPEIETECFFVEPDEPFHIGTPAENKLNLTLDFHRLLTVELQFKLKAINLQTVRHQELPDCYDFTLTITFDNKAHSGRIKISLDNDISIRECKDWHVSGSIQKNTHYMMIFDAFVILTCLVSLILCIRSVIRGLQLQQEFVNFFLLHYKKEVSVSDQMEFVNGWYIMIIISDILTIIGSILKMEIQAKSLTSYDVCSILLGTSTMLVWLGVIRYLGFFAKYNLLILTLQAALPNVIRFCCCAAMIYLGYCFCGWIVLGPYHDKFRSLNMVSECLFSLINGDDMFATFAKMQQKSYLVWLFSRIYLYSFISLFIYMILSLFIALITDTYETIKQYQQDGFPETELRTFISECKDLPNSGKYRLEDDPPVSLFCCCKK
row,SMILES,EC50
1,Cc1ccc(S(=O)(=O)n2ccc(-c3c(-c4ccc(Cl)cc4)noc3C)n2)cc1,0.291 µM
2,Cc1ccc(S(=O)(=O)n2nccc2-c2c(-c3ccc(Cl)cc3)noc2C)cc1,> 29.9 µM (inactive)
